Measurements from ChEMBL document CHEMBL5465560, “Selectivity Literature for EUbOPEN Chemogenomic Library” (2024).
Values belong to the molecule of their own block, whether it stands above or below them.

Assays:
[1] = biological target: T1, Mitogen-activated protein kinase kinase kinase 7 (Homo sapiens) (UniProt O43318); experiment: Selectivity interaction (Ambit KINOMEscan and KiNATiv profiling in Jurkat cells) EUB0000090b MAP3K7; assay type: cell-based; conditions: at 1 µM
T1 sequence (whole entry): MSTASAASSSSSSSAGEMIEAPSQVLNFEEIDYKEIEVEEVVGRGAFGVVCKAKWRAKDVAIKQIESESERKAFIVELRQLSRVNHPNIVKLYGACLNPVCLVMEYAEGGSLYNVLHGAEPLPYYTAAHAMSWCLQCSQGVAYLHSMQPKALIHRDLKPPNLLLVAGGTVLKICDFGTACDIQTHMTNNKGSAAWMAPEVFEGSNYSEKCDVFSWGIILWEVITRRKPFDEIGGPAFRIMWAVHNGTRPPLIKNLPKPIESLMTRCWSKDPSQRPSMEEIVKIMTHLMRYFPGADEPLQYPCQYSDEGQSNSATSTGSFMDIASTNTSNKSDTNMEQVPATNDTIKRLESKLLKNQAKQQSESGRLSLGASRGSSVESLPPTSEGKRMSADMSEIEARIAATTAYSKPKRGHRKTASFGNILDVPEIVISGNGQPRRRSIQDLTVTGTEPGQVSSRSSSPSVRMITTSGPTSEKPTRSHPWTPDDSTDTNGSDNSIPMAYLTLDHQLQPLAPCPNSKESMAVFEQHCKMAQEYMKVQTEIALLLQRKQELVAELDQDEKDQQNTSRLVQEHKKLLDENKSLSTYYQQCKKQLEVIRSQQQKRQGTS

[2] = biological target: Rho-associated protein kinase 2 (Homo sapiens, UniProt O75116); experiment: Selectivity interaction (Enzymatic assay) EUB0001199aCl ROCK2
Chain of Rho-associated protein kinase 2 (O75116 whole entry): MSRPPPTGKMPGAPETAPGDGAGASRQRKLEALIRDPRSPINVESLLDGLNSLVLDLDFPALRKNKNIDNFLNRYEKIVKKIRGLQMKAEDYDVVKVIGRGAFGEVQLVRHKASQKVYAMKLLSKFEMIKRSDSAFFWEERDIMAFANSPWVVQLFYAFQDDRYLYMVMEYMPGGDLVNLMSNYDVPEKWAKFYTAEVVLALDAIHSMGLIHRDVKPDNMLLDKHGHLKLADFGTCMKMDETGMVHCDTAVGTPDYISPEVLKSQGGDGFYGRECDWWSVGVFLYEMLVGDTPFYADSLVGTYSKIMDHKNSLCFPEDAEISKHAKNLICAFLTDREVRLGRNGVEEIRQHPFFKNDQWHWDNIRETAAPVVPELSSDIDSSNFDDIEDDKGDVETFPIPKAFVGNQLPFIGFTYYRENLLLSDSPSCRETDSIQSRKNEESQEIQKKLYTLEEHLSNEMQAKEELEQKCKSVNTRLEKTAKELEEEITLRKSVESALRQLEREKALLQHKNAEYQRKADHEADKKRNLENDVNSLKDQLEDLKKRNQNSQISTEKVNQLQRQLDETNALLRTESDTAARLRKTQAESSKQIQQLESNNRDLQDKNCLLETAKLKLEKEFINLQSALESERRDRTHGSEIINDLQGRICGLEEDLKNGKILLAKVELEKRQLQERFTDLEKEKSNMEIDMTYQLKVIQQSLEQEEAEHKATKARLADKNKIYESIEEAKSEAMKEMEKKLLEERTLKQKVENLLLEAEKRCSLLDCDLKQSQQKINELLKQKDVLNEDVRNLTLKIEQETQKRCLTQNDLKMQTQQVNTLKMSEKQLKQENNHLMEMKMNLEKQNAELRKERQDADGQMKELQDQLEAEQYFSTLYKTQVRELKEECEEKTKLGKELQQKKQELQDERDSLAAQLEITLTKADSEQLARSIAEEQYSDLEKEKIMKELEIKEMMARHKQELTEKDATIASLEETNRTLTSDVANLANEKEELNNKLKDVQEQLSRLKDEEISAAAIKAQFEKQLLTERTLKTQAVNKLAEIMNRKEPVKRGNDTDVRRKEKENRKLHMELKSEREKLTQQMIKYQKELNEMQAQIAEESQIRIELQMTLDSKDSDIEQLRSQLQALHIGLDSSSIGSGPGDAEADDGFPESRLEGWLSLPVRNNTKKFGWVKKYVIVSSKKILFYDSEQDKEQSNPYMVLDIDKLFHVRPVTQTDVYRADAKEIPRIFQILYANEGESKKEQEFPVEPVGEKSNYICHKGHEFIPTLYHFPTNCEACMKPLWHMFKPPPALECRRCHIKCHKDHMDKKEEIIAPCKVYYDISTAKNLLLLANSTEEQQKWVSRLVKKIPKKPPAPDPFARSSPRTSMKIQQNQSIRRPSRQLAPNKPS

[3] = biological target: T2, Tyrosine-protein kinase ZAP-70 (Homo sapiens) (UniProt P43403); experiment: Selectivity interaction (Kinase panel (literature)) EUB0001199aCl ZAP70; conditions: at 1 µM
T2 sequence (whole entry): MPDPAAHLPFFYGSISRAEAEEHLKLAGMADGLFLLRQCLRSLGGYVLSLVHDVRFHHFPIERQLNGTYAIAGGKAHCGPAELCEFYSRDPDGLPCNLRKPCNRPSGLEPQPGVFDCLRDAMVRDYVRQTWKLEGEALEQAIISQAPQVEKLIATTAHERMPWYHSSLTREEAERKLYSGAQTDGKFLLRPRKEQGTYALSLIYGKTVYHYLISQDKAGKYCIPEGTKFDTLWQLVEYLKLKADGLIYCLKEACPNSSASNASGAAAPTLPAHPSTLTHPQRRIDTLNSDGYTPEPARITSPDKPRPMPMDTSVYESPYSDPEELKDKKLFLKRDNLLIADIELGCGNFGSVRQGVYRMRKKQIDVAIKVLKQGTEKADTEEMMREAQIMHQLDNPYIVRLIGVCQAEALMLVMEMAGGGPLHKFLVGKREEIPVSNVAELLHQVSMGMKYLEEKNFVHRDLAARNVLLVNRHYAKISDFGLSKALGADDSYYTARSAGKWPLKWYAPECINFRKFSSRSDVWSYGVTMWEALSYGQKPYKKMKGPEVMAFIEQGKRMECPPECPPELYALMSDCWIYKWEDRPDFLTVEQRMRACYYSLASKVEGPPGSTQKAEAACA

[4] = Selectivity interaction (KinomeScan (DiscoverX)) EUB0001619a CDPK1; conditions: at 1 µM
[5] = biological target: T3, Serine/threonine-protein kinase 3 (Homo sapiens) (UniProt Q13188); experiment: Selectivity interaction (Kinase panel (DSF assay)) EUB0001558a STK3
T3 sequence (whole entry): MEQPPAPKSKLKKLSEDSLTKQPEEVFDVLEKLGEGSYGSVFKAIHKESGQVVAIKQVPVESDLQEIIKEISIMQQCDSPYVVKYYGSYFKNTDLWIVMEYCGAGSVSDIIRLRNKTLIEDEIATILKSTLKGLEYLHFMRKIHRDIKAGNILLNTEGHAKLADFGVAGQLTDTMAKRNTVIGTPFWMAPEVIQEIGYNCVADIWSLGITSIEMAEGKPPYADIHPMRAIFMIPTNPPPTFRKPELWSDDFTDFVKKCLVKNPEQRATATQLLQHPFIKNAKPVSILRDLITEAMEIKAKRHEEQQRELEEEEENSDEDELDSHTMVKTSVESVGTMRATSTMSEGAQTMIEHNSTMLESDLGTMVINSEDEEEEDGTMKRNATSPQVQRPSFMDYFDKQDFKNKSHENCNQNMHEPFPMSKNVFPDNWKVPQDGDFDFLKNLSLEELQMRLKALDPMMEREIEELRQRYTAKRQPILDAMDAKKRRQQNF

[6] = biological target: T4, Tyrosine-protein kinase TXK (Homo sapiens) (UniProt P42681); conditions: at 10 µM
T4 sequence (whole entry): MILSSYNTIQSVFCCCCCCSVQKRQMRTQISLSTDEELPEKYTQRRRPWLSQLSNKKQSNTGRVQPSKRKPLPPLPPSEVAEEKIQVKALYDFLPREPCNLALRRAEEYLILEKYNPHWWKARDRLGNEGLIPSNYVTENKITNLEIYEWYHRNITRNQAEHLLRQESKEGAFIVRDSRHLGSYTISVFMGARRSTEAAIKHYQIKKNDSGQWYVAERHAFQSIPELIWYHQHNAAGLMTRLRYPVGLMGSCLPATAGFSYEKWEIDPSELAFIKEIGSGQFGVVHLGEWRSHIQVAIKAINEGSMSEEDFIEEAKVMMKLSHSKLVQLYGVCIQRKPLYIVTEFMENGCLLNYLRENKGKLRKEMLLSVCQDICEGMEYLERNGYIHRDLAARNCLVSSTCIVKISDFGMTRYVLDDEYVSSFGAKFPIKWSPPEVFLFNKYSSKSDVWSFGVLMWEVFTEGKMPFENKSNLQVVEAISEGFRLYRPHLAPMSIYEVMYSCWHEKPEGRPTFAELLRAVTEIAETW

[7] = biological target: Serine/threonine-protein kinase 24 (Homo sapiens) (UniProt Q9Y6E0); experiment: Selectivity interaction (ActivX KiNativ screen (kinase selectivity in THP-1 cell lysates)) EUB0000639a STK24; assay type: subcellular; conditions: lysate, at 1 µM
Chain of Serine/threonine-protein kinase 24 (Homo sapiens) (Q9Y6E0 whole entry, looked up): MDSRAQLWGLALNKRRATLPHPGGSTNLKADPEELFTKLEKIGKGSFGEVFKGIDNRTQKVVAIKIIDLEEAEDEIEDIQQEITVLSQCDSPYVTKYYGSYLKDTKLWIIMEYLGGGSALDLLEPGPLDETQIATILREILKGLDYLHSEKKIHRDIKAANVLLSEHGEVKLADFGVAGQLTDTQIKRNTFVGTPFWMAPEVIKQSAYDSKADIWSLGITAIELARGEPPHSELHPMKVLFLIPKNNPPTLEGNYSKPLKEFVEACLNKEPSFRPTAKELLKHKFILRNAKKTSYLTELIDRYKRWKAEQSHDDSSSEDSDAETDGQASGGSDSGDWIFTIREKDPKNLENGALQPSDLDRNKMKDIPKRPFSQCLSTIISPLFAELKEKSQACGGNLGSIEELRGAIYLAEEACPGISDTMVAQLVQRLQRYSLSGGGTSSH

[8] = biological target: Ribosomal protein S6 kinase alpha-5 (Homo sapiens) (UniProt O75582); experiment: Selectivity interaction (KinomeScan (DiscoverX)) EUB0000229b RPS6KA5; conditions: at 10 µM
Chain of Ribosomal protein S6 kinase alpha-5 (Homo sapiens) (O75582 whole entry, looked up): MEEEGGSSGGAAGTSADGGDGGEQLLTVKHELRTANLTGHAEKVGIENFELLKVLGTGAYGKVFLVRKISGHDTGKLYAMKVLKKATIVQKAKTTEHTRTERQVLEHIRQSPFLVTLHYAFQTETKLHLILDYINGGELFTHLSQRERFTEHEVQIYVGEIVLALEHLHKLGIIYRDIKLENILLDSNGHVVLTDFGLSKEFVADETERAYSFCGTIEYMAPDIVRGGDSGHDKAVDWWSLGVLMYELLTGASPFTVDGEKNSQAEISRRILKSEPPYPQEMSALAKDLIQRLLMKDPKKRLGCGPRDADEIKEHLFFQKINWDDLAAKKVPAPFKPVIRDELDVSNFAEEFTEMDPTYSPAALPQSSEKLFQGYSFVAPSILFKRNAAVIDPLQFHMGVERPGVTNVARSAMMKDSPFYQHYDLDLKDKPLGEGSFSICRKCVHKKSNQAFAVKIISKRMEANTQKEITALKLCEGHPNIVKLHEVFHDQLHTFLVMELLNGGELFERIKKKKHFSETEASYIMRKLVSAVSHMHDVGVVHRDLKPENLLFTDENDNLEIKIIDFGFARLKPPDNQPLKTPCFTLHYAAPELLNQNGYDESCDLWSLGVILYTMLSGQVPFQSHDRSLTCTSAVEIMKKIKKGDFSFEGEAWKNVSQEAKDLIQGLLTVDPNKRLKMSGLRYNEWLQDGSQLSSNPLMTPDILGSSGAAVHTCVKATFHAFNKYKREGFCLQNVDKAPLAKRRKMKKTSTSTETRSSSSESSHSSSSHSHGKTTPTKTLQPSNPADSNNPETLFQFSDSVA

[9] = biological target: Death-associated protein kinase 1 (Homo sapiens, UniProt P53355); experiment: Selectivity interaction (ProQinase) EUB0000171b DAPK1
Chain of Death-associated protein kinase 1 (P53355 whole entry, looked up): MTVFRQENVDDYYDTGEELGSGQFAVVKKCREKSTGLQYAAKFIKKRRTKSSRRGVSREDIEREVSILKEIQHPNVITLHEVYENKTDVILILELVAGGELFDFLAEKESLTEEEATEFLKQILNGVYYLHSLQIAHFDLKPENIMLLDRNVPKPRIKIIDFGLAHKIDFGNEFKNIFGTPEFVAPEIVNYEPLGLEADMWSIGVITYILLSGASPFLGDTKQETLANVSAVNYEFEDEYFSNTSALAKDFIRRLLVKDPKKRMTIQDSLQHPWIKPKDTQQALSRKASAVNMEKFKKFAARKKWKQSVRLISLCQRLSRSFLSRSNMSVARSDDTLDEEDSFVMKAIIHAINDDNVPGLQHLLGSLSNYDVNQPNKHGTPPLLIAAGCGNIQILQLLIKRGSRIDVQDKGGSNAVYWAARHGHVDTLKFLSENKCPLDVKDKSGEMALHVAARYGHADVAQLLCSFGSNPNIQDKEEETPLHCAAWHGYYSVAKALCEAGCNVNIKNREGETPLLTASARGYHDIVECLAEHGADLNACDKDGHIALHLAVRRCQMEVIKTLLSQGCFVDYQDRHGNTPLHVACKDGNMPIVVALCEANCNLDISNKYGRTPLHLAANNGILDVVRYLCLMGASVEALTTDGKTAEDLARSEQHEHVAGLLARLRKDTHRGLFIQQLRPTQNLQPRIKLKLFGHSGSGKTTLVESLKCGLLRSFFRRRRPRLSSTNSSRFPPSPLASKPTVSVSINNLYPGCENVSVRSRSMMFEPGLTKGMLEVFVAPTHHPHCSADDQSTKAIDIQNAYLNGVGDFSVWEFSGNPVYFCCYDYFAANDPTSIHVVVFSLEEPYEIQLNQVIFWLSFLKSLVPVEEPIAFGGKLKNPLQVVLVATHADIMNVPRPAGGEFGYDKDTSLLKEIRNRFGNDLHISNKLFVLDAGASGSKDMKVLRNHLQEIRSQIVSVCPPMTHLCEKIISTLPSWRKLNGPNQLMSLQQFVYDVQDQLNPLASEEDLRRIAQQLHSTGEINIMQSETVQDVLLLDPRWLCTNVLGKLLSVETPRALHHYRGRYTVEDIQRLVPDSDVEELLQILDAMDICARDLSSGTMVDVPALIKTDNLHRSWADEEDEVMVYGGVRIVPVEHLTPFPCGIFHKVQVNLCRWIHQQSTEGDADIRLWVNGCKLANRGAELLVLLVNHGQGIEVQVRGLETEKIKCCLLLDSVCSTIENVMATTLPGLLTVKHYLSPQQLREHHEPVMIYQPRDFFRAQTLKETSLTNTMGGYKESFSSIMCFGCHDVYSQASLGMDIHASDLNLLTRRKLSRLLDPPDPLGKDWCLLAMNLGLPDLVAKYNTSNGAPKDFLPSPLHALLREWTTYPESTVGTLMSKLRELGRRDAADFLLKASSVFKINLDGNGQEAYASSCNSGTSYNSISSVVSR

[10] = biological target: STE20/SPS1-related proline-alanine-rich protein kinase (Homo sapiens) (UniProt Q9UEW8); experiment: Selectivity interaction (KinomeScan (DiscoverX)) EUB0001049a STK39; conditions: at 1 µM

Compound: CN(C)C/C=C/C(=O)Nc1ccc(C(=O)N2CCCC(Nc3ncc(Cl)c(-c4c[nH]c5ccccc45)n3)C2)cc1 (stereo unspecified)
% of control [1]: 90%

IC50 [2]: 10.2 µM | % of inhibition [3]: 6%
Compound: CN1Cc2nccc(-c3cn(C)nc3-c3ccc(F)cc3)c2C1=O

Compound: N#Cc1cccc(-c2c[nH]c3ncnc(N4CCOCC4)c23)c1
% of control [4]: 78%

Compound: CC(C)(O)[C@H](F)CN1Cc2cc(NC(=O)c3cnn4cccnc34)c(N3CCOCC3)cc2C1=O
dTM [5]: 2.1 K

Compound: Cc1cc([C@@H](C)Nc2ccccc2C(=O)O)c2nc(N3CCOCC3)cc(=O)n2c1 [AZD-6482]
% of control [6]: 90%

% of inhibition [7]: 5.9%
Compound: CC[C@@H]1[C@H](F)C(=O)N[C@@H]1COc1nccc2cc(C(N)=O)c(OC)cc12 [ZIMLOVISERTIB]

Compound: COc1cc(N(C)c2ccnc3ccc(C(F)(F)F)cc23)cc(OC)c1OC
% binding [8]: 87%

Compound: C=CC(=O)Nc1cccc(C(=O)Nc2ccc(Nc3cc(-c4[nH]c(SC)nc4C)ccn3)cc2)c1
% of control ([9]; at 1 µM): 100% | % of control ([9]; at 5 µM): 94%

Compound: COc1cc(Nc2nc(C)cc(-c3cnn4nc(OC)ccc34)n2)cc(C(F)(F)F)c1
% of control [10]: 64%
